Reference: patent publication US7126676B2, “Spectral analysis of light scattered from clotting blood” (priority 2002, dated 2006)
Like-named read-outs stand apart in the source and are kept apart here.

Experiments:
[1] = test system: clotting native whole blood; conditions: for Ratio of Post-treatment to Pre-treatment Value of Logistic Parameter B: two hours after ingestion, same subject
clotting = conditions: cited from earlier work
[2] = rofecoxib-treated arm compared with naproxen; cited from earlier work

CC(=O)Oc1ccccc1C(=O)O [Aspirin]
Ratio of Post-treatment to Pre-treatment Value of Logistic Parameter B ([1]; 470 nm, Aspirin 325 mg single dose): 4.48
Ratio of Post-treatment to Pre-treatment Value of Logistic Parameter B ([1]; 550 nm, Aspirin 325 mg single dose): 1.45
Ratio of Post-treatment to Pre-treatment Value of Logistic Parameter B ([1]; 610 nm, Aspirin 325 mg single dose): 2.18
Ratio of Post-treatment to Pre-treatment Value of Logistic Parameter B ([1]; 700 nm, Aspirin 325 mg single dose): 1.85

Cc1ccc(-c2cc(C(F)(F)F)nn2-c2ccc(S(N)(=O)=O)cc2)cc1 [Celecoxib]
Ratio of Post-treatment to Pre-treatment Value of Logistic Parameter B ([1]; 470 nm, Celecoxib 400 mg single dose): 0.087
Ratio of Post-treatment to Pre-treatment Value of Logistic Parameter B ([1]; 550 nm, Celecoxib 400 mg single dose): 0.154
Ratio of Post-treatment to Pre-treatment Value of Logistic Parameter B ([1]; 610 nm, Celecoxib 400 mg single dose): 0.055
Ratio of Post-treatment to Pre-treatment Value of Logistic Parameter B ([1]; 700 nm, Celecoxib 400 mg single dose): 0.107

COc1ccc2cc([C@H](C)C(=O)O)ccc2c1 [Naproxen]
Ratio of Post-treatment to Pre-treatment Value of Logistic Parameter B ([1]; 470 nm, Naproxen 600 mg single dose): 1.63
Ratio of Post-treatment to Pre-treatment Value of Logistic Parameter B ([1]; 550 nm, Naproxen 600 mg single dose): 0.03
Ratio of Post-treatment to Pre-treatment Value of Logistic Parameter B ([1]; 610 nm, Naproxen 600 mg single dose): 0.34
Ratio of Post-treatment to Pre-treatment Value of Logistic Parameter B ([1]; 700 nm, Naproxen 600 mg single dose): 0.28
Effect on clotting as determined by the invention, in words ([1]; at 470 nm): aspirin-like effect
Effect on clotting as determined by the invention, in words ([1]; at the other wavelengths (550, 610, 700 nm)): celecoxib-like effect

CS(=O)(=O)c1ccc(C2=C(c3ccccc3)C(=O)OC2)cc1 [rofecoxib]
Effect on clotting as measured by routine techniques (clotting): Neither rofecoxib nor celecoxib has any effect on clotting
Incidence of thrombotic events [2]: higher incidence of thrombotic events
